Legend:
C6 = test: In vitro cytotoxicity against C6 rat glioma cell line; format: functional, cell-based
U-87 MG = test: In vitro cytotoxicity against HTB14 human glioma cell line; format: functional, cell-based, U-87MG ATCC
HeLa = test: In vitro cytotoxicity against HeLa human cervical carcinoma cell line; format: functional, cell-based
NHDF = test: In vitro cytotoxicity against normal human dermal fibroblast (NHDF) cell line; format: functional, cell-based
NB-4 [1] = test: In vitro cytotoxicity against NB4 leukemia cell line; format: functional, cell-based; details: Homo sapiens
T47D [2] = test: Growth stimulating activity against T47D breast cancer cell line; growth stimulatory activity is observed.; format: functional, cell-based, Homo sapiens
T47D [3] = test: In vitro cytotoxicity against T47D breast cancer cell line; format: functional, cell-based; details: Homo sapiens
NB-4 [4] = test: Growth stimulating activity against NB4 leukemia cell line; growth stimulatory activity is observed.; format: functional, cell-based, Homo sapiens

IC50 (T47D [2]) | SMILES | IC50 (C6) | IC50 (U-87 MG) | IC50 (HeLa) | IC50 (NHDF) | IC50 (NB-4 [1]) | IC50 (T47D [3]) | IC50 (NB-4 [4])
Growth-stimulatory activity | Nc1nc(S)c2ncn([C@H]3S[C@@H](CO)[C@H](O)[C@@H]3O)c2n1 | > 100 µM | 62.1 µM | > 100 µM | > 100 µM | > 100 µM |  | 
 | Cc1cn([C@H]2S[C@@H](CO)[C@H](O)[C@@H]2O)c(=O)[nH]c1=O | > 100 µM | 67.8 µM | 100 µM | > 100 µM | > 100 µM | > 100 µM | 
Growth-stimulatory activity | Nc1nc(=O)n([C@H]2S[C@@H](CO)[C@H](O)[C@@H]2O)cc1F | > 100 µM | 83.3 µM | 95.9 µM | > 100 µM |  |  | Growth-stimulatory activity
 | O=c1[nH]c(=O)n([C@H]2S[C@@H](CO)[C@H](O)[C@@H]2O)cc1F | > 100 µM | 41.5 µM | > 100 µM | > 100 µM | > 100 µM | > 100 µM | 
